# In ChEMBL document CHEMBL5661943, “ASAP - In vitro antiviral effect” (2024):
# Several values for one entry are separate records, joined by “and”; a condition that tells them apart may be missing. Equal entries are not always repeated.
# Legend:
# [1] = test system: dengue virus type 2; assay: Functional assay to measure dose dependent changes in antiviral-drug inhibitory efficacy against Dengue virus type 2 New Guinea C in Vero E6 miRFP670 cells (cotreated with P-gp inhibitor, CP100356). Cells are treated with antiviral candidates that are serially diluted, following infection, cells are fixed. EC50 is reported via analysis of fluorescence intensity using high-content imager. The …; assay type: organism-based, Chlorocebus sabaeus, Vero C1008
# [2] = test system: Zika virus; assay: Functional CPE-based assay to measure dose dependent changes in antiviral-drug inhibitory efficacy against Zika virus MR766 in Vero E6 miRFP670 cells (cotreated with P-gp inhibitor, CP100356). Cells are treated with antiviral candidates that are serially diluted. EC50 is reported via analysis of MTS assay as a readout of CPE. The assay has been performed by KU Leuven.; assay type: organism-based, Chlorocebus sabaeus, Vero C1008; conditions: for EC90: P-gp concentration 500 nM, P-gp inhibitor CP100356
smiles,measurement,setting,value
C[C@@]1(O)[C@H](O)[C@@H](CO)O[C@H]1n1ccc(N)nc1=O,EC50,"[1]; Dengue virus, Vero C1008",116 µM
same,EC90,"[1]; Dengue virus, Vero C1008, Baseline response 0 %, Hill slope -2.692, Maximum measured 107.888 %, Maximum response 100 %, Minimum measured 21.977 %, P-gp concentration 500 nM, R squared 0.958, P-gp inhibitor CP100356",> 200 µM
C=C1C[C@H](c2cc(Cl)cc(NC(=O)OCc3ccccc3)c2)[C@@H](c2cccc(-c3nn[nH]n3)c2)C1,EC50,"[1]; Dengue virus, Vero C1008",> 6.25 µM
same,EC90,"[1]; Dengue virus, Vero C1008, Maximum measured 124.641 %, Minimum measured 90.066 %, P-gp concentration 500 nM, P-gp inhibitor CP100356",> 6.25 µM
CN(C)C(=O)c1cc(CN)cc([C@@H]2C[C@H]2c2cc(Cl)cc(NC(=O)OCc3ccccc3)c2)c1,EC50,"[1]; Dengue virus, Vero C1008",2 µM
same,EC90,"[1]; Dengue virus, Vero C1008, Baseline response 0 %, Hill slope -4.597, Maximum measured 117.075 %, Maximum response 100 %, Minimum measured 13.909 %, P-gp concentration 500 nM, R squared 0.926, P-gp inhibitor CP100356",> 3.12 µM
CC(=Cc1cc(Cl)cc(NC(=O)OCc2ccccc2)c1)c1cccc(CN)c1,EC50,"[1]; Dengue virus, Vero C1008",> 1.56 µM
same,EC90,"[1]; Dengue virus, Vero C1008, Maximum measured 159.566 %, Minimum measured 81.442 %, P-gp concentration 500 nM, P-gp inhibitor CP100356",> 1.56 µM
C=CC[C@H](Nc1cc(Cl)cc(NC(=O)OCc2ccccc2)c1)c1cccc(CN)c1,EC50,"[1]; Dengue virus, Vero C1008",0.546 µM
same,EC90,"[1]; Dengue virus, Vero C1008, Baseline response 0 %, EC90 CI (lower) 0.029 uM, EC90 CI (upper) 0.719 uM, Hill slope -1.654, Maximum measured 56.301 %, Maximum response 100 %, Minimum measured 0.945 %, P-gp concentration 500 nM, R squared 0.693, P-gp inhibitor CP100356",2.06 µM
CC(C)NC(=O)[C@H](Nc1ccc2c(c1)CNC2)c1cc(Cl)cc2[nH]c(-c3ccccc3)nc12,EC90,"[2]; Baseline response 0 %, EC90 CI (lower) 1.625 uM, EC90 CI (upper) 3.959 uM, Hill slope 3.776, Maximum measured 116.485 %, Maximum response 100 %, Minimum measured 3.087 %, R squared 0.948",2.54 µM
same,EC90,"[2]; Zika virus, Vero C1008, Maximum measured -0.317 %, Minimum measured -11.958 %",> 50 µM
same,EC90,"[2]; Zika virus, Vero C1008, Baseline response 0 %, Hill slope 1.53, Maximum measured 31.705 %, Maximum response 100 %, Minimum measured 3.074 %, R squared 0.825",> 3.12 µM
same,EC90,"[1]; Baseline response 0 %, Hill slope -0.821, Maximum measured 139.415 %, Maximum response 100 %, Minimum measured 43.862 %, P-gp concentration 500 nM, R squared 0.144, P-gp inhibitor CP100356",> 50 µM
same,EC90,"[1]; Baseline response 0 %, Hill slope -1.532, Maximum measured 181.616 %, Maximum response 100 %, Minimum measured 48.773 %, P-gp concentration 500 nM, R squared 0.025, P-gp inhibitor CP100356",> 50 µM
same,EC90,"[1]; Baseline response 0 %, Hill slope -1.75, Maximum measured 104.337 %, Maximum response 100 %, Minimum measured 20.383 %, P-gp concentration 500 nM, R squared 0.733, P-gp inhibitor CP100356",> 12.5 µM
same,EC50,[1]; vero c1008,5.05 µM and > 50 µM
N[C@H]1Cc2ccc(NC(=O)c3cc(Cl)cc(NC(=O)OCc4ccccc4)c3)cc2C1,EC50,"[1]; Dengue virus, Vero C1008",1.64 µM
same,EC90,"[1]; Dengue virus, Vero C1008, Baseline response 0 %, EC90 CI (lower) 0.187 uM, EC90 CI (upper) 8.327 uM, Hill slope -7.929, Maximum measured 105.944 %, Maximum response 100 %, Minimum measured 3.386 %, P-gp concentration 500 nM, R squared 0.874, P-gp inhibitor CP100356",2.17 µM
NCc1ccc2c(c1)[C@H]1OCCC[C@H]1[C@H](c1cc(Cl)cc(NC(=O)OCc3ccccc3)c1)N2,EC50,"[1]; Dengue virus, Vero C1008",1.9 µM
same,EC90,"[1]; Dengue virus, Vero C1008, Baseline response 0 %, EC90 CI (lower) 1.087 uM, EC90 CI (upper) 1.673 uM, Hill slope -6.376, Maximum measured 104.423 %, Maximum response 100 %, Minimum measured 0.619 %, P-gp concentration 500 nM, R squared 0.968, P-gp inhibitor CP100356",2.69 µM
COc1ccc(S(=O)(=O)Nc2cc(F)c(Cl)cc2C(=O)NCC(C)C)cc1,EC50,"[1]; Dengue virus, Vero C1008",5.86 µM
same,EC90,"[1]; Dengue virus, Vero C1008",6.67 µM
O=C(Nc1cc(Cl)cc([C@H]2C[C@@H]2c2cccc(-c3nnn[nH]3)c2)c1)OCc1ccccc1,EC50,"[1]; Dengue virus, Vero C1008",> 25 µM
same,EC90,"[1]; Dengue virus, Vero C1008, Maximum measured 174.938 %, Minimum measured 87.593 %, P-gp concentration 500 nM, P-gp inhibitor CP100356",> 25 µM
C=CC[C@H]1NCc2cc(NC(=O)c3cc(Cl)cc4[nH]ncc34)ccc21,EC50,"[2]; Zika virus, Vero C1008",> 50 µM
same,EC90,"[2]; Zika virus, Vero C1008, Baseline response 0 %, Hill slope 0.168, Maximum measured 60.303 %, Maximum response 100 %, Minimum measured -6.598 %, R squared 0.022",> 50 µM
CC1(C)NCc2cc(NC(=O)c3cc(F)cc4[nH]ncc34)ccc21,EC50,"[2]; Zika virus, Vero C1008",> 50 µM
same,EC90,"[2]; Zika virus, Vero C1008, Maximum measured -0.426 %, Minimum measured -7.479 %",> 50 µM
O=C(O)Cn1ncc2cc(-c3cc(Cl)cc(NC(=O)OCc4ccccc4)c3)ccc21,EC50,"[1]; Dengue virus, Vero C1008",> 50 µM
same,EC90,"[1]; Dengue virus, Vero C1008, Maximum measured 125.945 %, Minimum measured 96.066 %, P-gp concentration 500 nM, P-gp inhibitor CP100356",> 50 µM
NCc1cccc(-c2csc3cc(C(=O)Nc4ccc5c(c4)CNC5)ccc23)c1,EC50,"[2]; Zika virus, Vero C1008",2.4 µM
same,EC90,"[2]; Zika virus, Vero C1008, Baseline response 0 %, Hill slope 1.279, Maximum measured 60.824 %, Maximum response 100 %, Minimum measured 10.172 %, R squared 0.942",> 3.12 µM
O=C(Nc1cc(Cl)cc(CNc2cccc(-c3nn[nH]n3)c2)c1)OCc1ccccc1,EC50,"[1]; Dengue virus, Vero C1008",> 25 µM
same,EC90,"[1]; Dengue virus, Vero C1008, Maximum measured 175.327 %, Minimum measured 92.337 %, P-gp concentration 500 nM, P-gp inhibitor CP100356",> 25 µM
